Like-named read-outs stand apart in the source and are kept apart here.

Results on 17 molecules are retold here after US11680056B2, “MK2 inhibitors and uses thereof” (Xinthera, Inc., priority 2021, dated 2023).

One test addresses p38a/MK2 (Homo sapiens (Human), UniProt P49137+Q16539). Kind of test: p38a/MK2 biochemical assay: activation of MK2 by p38, FITC-HSP27 peptide phosphorylation (IMAP FP). Particulars: 10-point 1:3 dilution, 60 pM active p38a, 1 nM inactive MK2, 10 μM ATP, 2 h incubation. The method, then: (§1) Expression vectors of the recombinant MK2 and PRAK kinases were constructed by cloning of the codon optimized gene sequences of MK2 (Uniprot ID P49137, amino acid fragment F46-H400), or PRAK (Uniprot ID Q81W41, amino acid fragment M1-Q471) into pGEX-4T1 (GE) for over expression of these kinases with N-terminal GST-tag. Protein expression was carried out in E. coli BL21 by growing the hosts in TB medium, induction of protein expression with 0.5 mM IPTG at approximate 0.8 OD600, and incubation of the cultures at 18° C. for 14-20 hours afterwards. The harvested cells were resuspended in […] of Lysis buffer (50 mM Tris-HCl, pH 8.0, 500 mM NaCl, 1 mM DTT, 5% glycerol, and 1 mM PMSF) per gram of wet cell mass and homogenized at 4° C. in a microfluidizer (ATS, Suzhou, China) at 14,000 psi pressure, 3 passes. The cell lysates were clarified by centrifugation and the supernatants containing the GST-fusion proteins were purified by affinity chromatography using GSH-Sepharose (GE) gravity flow columns pre-equilibrated in Buffer A (50 mM Tris-HCl, pH 8.0, 500 mM NaCl, 1 mM DTT, and 5% glycerol). After thorough washing of the columns with Buffer A, the bound GST-proteins were eluted by Buffer B (50 mM Tris, pH 8.0, 500 mM NaCl, 1 mM DTT, 5% glycerol, 10 mM glutathione), followed by size-exclusion purification on Superdex 200 column equilibrated in Buffer A. The purified proteins were concentrated to approximately 1 mg/ml and stored at −80° C.
This study evaluates the inhibitory potency of invention compound on p38/MK2 pathway vs p38/PRAK pathway. More specially the compound concentration (IC50) was determined that inhibited half of the maximal activation of MK2 or PRAK by p38. MK2 activation study was set up without or with a serial of 10-point 1:[…], and PRAK activation study was set up without or with a serial of 10-point 1:3 dilution of invention compound at top dose of 300 μM. The MK2 and PRAK activity were determined by the phosphorylation level of HSP27 peptide conjugated with FITC.
(§2) After 2 h incubation of the reaction mixture with various concentration of invention compound (200 nL), 60 μL 1×IMAP solution Mixture (Molecular Devices, Cat R8127) was added to the reaction mixture and incubated for another half hour. The signal was then read by Synergy™ Neo2 Multi-Mode Microplate Reader with filter setting (Ex/Em=485 nm/FITC FP-P pol 528 nm & FITC FP-S pol 528 nm)
(§3) The signal was then normalized to vehicle control and fitted in Xfit to generate IC50. The selectivity of MK2 over PRAK was calculated by the formular Selectivity=IC50 of PRAK/IC50 of MK2.

The next test concerns the target p38a/PRAK (Homo sapiens (Human), UniProt Q16539). Kind of test: p38a/PRAK biochemical assay: activation of PRAK by p38, FITC-HSP27 peptide phosphorylation (IMAP FP). To be noted: 10-point 1:3 dilution, top dose 300 μM, 60 pM active p38a, 1 nM inactive PRAK, 10 μM ATP, 2 h incubation; for IC50: read-out: p38a/PRAK Enzyme pIC50 (converted). The method, then:
as §1
This study evaluates the inhibitory potency of invention compound on p38/MK2 pathway vs p38/PRAK pathway. More specially the compound concentration (IC50) was determined that inhibited half of the maximal activation of MK2 or PRAK by p38. MK2 activation study was set up without or with a serial of 10-point 1:3 dilution of invention compound at top dose of […], and PRAK activation study was set up without or with a serial of 10-point 1:3 dilution of invention compound at top dose of 300 μM. The MK2 and PRAK activity were determined by the phosphorylation level of HSP27 peptide conjugated with FITC.
as §2, §3

The mark [1] stands for this setting: top dose 10 μM, read-out: p38a/MK2 (10 μM) Enzyme pIC50 (converted).
[2] abbreviates: top dose 1 μM, read-out: p38a/MK2 (1 μM) Enzyme pIC50 (converted).

p38a/PRAK, sequence (Q16539 whole entry): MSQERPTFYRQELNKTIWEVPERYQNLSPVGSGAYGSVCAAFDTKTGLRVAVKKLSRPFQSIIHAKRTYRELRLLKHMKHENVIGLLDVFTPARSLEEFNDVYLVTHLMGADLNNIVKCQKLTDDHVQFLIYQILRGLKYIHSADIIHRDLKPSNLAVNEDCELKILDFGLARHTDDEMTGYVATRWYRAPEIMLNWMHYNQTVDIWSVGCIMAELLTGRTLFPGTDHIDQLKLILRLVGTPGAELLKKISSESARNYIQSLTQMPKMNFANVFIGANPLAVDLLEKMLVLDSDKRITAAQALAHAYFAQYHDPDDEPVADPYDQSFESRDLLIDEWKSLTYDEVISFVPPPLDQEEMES
p38a/MK2, sequence (P49137 46-400): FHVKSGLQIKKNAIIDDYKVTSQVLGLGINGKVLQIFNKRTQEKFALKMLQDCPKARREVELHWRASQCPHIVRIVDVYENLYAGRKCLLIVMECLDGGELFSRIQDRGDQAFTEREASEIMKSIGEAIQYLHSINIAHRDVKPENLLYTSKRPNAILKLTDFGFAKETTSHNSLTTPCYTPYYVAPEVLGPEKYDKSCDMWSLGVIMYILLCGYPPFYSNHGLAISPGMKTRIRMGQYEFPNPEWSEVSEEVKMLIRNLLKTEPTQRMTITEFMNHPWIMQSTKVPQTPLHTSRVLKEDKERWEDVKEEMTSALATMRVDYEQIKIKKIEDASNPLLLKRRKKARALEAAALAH
p38a/MK2, sequence (Q16539 whole entry, the tested form may be a part): as the sequence (Q16539 whole entry) above

As to `Cc1cnc(-c2ccc3c(n2)[C@@H](O)CC3)cc1-n1c(C)cc(OCc2ncc(F)cc2F)c(Cl)c1=O` (single isomer, unassigned) [Example 18C], the “p38a/MK2 (10 μM) Enzyme pIC50” value at p38a/MK2 (top dose 10 μM) is on record as <5.0. Also, the “p38a/PRAK Enzyme pIC50” value at p38a/PRAK is recorded as <3.5.
Turning to `Cc1cnc(-c2ccc3c(n2)[C@H](O)CC3)cc1-n1c(C)cc(OCc2ncc(F)cc2F)c(Cl)c1=O` (single isomer, unassigned) [Example 18D], the IC50 on p38a/MK2 (setting [1]) was 0.0794 µM; at p38a/PRAK, 3.16 µM.
For `Cc1cnc(-c2ccnc(C3(CO)CC3)n2)cc1-n1c(C)cc(OCc2ncc(F)cc2F)c(Cl)c1=O` (single isomer, unassigned) [Example 21A, rel-3-chloro-4-((3,5-difluoropyridin-2-yl)methoxy)-2′-(2-(1-(hydroxymethyl)cyclopropyl)pyrimidin-4-yl)-5′,6-dimethyl-2H-[1,4′-bipyridin]-2-one] the same measures were > 10 µM and > 316 µM.
Turning to `Cc1cnc(-c2ccnc(C3(CO)CC3)n2)cc1-n1c(C)cc(OCc2ncc(F)cc2F)c(Cl)c1=O` (single isomer, unassigned) [Example 21B, rel-3-chloro-4-((3,5-difluoropyridin-2-yl)methoxy)-2′-(2-(1-(hydroxymethyl)cyclopropyl)pyrimidin-4-yl)-5′,6-dimethyl-2H-[1,4′-bipyridin]-2-one], the IC50 on p38a/MK2 (setting [2]) was 0.00316 µM; on p38a/PRAK it was 2 µM.
Take `Cc1cc(COc2cc(C)n(-c3cc(-c4ccnc(C(C)(C)O)n4)ncc3C)c(=O)c2Cl)ncc1F` (single isomer, unassigned) [Example 22A, rel-3-chloro-4-[(5-fluoro-4-methylpyridin-2-yl)methoxy]-2′-[2-(2-hydroxypropan-2-yl)pyrimidin-4-yl]-5′,6-dimethyl-[1,4′-bipyridin]-2-one]: the IC50 at p38a/MK2 (setting [1]) is 0.0316 µM; at p38a/PRAK, 15.8 µM.
Turning to `Cc1cc(COc2cc(C)n(-c3cc(-c4ccnc(C(C)(C)O)n4)ncc3C)c(=O)c2Cl)ncc1F` (single isomer, unassigned) [Example 22B, rel-3-chloro-4-[(5-fluoro-4-methylpyridin-2-yl)methoxy]-2′-[2-(2-hydroxypropan-2-yl)pyrimidin-4-yl]-5′,6-dimethyl-[1,4′-bipyridin]-2-one], the IC50 at p38a/MK2 (setting [1]) is > 10 µM; at p38a/PRAK, > 316 µM.
For the molecule `Cc1cnc(COc2cc(C)n(-c3cc(-c4ccnc(C(C)(C)O)n4)ncc3C)c(=O)c2Cl)c(F)c1` (single isomer, unassigned) [Example 23A, rel-3-chloro-4-[(3-fluoro-5-methylpyridin-2-yl)methoxy]-2′-[2-(2-hydroxypropan-2-yl)pyrimidin-4-yl]-5′,6-dimethyl-[1,4′-bipyridin]-2-one], the results for the IC50 at p38a/MK2 (setting [2]) and at p38a/PRAK were 0.00316 µM and 12.6 µM, respectively.
For the molecule `Cc1cnc(COc2cc(C)n(-c3cc(-c4ccnc(C(C)(C)O)n4)ncc3C)c(=O)c2Cl)c(F)c1` (single isomer, unassigned) [Example 23B, rel-3-chloro-4-[(3-fluoro-5-methylpyridin-2-yl)methoxy]-2′-[2-(2-hydroxypropan-2-yl)pyrimidin-4-yl]-5′,6-dimethyl-[1,4′-bipyridin]-2-one], the IC50 at p38a/MK2 (setting [1]) is > 10 µM; at p38a/PRAK it was > 316 µM.
On to `Cc1cnc(-c2ccc(F)c(C(C)(C)O)n2)cc1-n1c(C)cc(OCc2ncc(F)cc2F)c(Cl)c1=O` (single isomer, unassigned) [Example 24A, rel-3-chloro-4-[(3,5-difluoropyridin-2-yl)methoxy]-1-[5′-fluoro-6′-(2-hydroxypropan-2-yl)-5-methyl-[2,2′-bipyridin]-4-yl]-6-methylpyridin-2-one], for which the results for the IC50 at p38a/MK2 (setting [2]) and on p38a/PRAK were 0.00158 µM and 6.31 µM, respectively.
For the molecule `Cc1cnc(-c2ccc(F)c(C(C)(C)O)n2)cc1-n1c(C)cc(OCc2ncc(F)cc2F)c(Cl)c1=O` (single isomer, unassigned) [Example 24B, rel-3-chloro-4-[(3,5-difluoropyridin-2-yl)methoxy]-1-[5′-fluoro-6′-(2-hydroxypropan-2-yl)-5-methyl-[2,2′-bipyridin]-4-yl]-6-methylpyridin-2-one], the IC50 at p38a/MK2 (setting [1]) is 1.58 µM; at p38a/PRAK, > 316 µM.
For `Cc1cnc(-c2ccn(C(C)(C)CO)n2)cc1-n1c(C)cc(OCc2ncc(F)cc2F)c(Cl)c1=O` (single isomer, unassigned) [Example 25A, rel-3-chloro-4-[(3,5-difluoropyridin-2-yl)methoxy]-2′-[1-(1-hydroxy-2-methylpropan-2-yl)pyrazol-3-yl]-5′,6-dimethyl-[1,4′-bipyridin]-2-one] the same measures were 0.0316 µM and 3.16 µM.
Take `Cc1cnc(-c2ccn(C(C)(C)CO)n2)cc1-n1c(C)cc(OCc2ncc(F)cc2F)c(Cl)c1=O` (single isomer, unassigned) [Example 25B, rel-3-chloro-4-[(3,5-difluoropyridin-2-yl)methoxy]-2′-[1-(1-hydroxy-2-methylpropan-2-yl)pyrazol-3-yl]-5′,6-dimethyl-[1,4′-bipyridin]-2-one]: the IC50 on p38a/MK2 (setting [1]) is 3.16 µM; at p38a/PRAK, > 316 µM.
Regarding `Cc1cnc(-c2ccnc(C3CC(O)C3)n2)cc1-n1c(C)cc(OCc2ncc(F)cc2F)c(Cl)c1=O` (single isomer, unassigned) [Example 26A, rel-3-chloro-4-((3,5-difluoropyridin-2-yl)methoxy)-2′-(2-(3-hydroxycyclobutyl)pyrimidin-4-yl)-5′,6-dimethyl-2H-[1,4′-bipyridin]-2-one], the figures for the IC50 at p38a/MK2 (setting [2]) and at p38a/PRAK were 0.0126 µM and 2 µM, respectively.
As for `Cc1cnc(-c2ccnc(C3CC(O)C3)n2)cc1-n1c(C)cc(OCc2ncc(F)cc2F)c(Cl)c1=O` (single isomer, unassigned) [Example 26B, rel-3-chloro-4-((3,5-difluoropyridin-2-yl)methoxy)-2′-(2-(3-hydroxycyclobutyl)pyrimidin-4-yl)-5′,6-dimethyl-2H-[1,4′-bipyridin]-2-one], the IC50 at p38a/MK2 (setting [1]) was 1.58 µM; at p38a/PRAK it was > 316 µM.
For `Cc1cnc(-c2ccnc(C(C)(C)O)n2)cc1-n1c(C)cc(OCc2cc(C(F)F)ccn2)c(Cl)c1=O` (single isomer, unassigned) [Example 27A, rel-3-chloro-4-{[4-(difluoromethyl)pyridin-2-yl]methoxy}-2′-[2-(2-hydroxypropan-2-yl)pyrimidin-4-yl]-5′,6-dimethyl-[1,4′-bipyridin]-2-one] the same measures were 0.0631 µM and 126 µM.
For `Cc1cnc(-c2ccnc(C(C)(C)O)n2)cc1-n1c(C)cc(OCc2cc(C(F)F)ccn2)c(Cl)c1=O` (single isomer, unassigned) [Example 27B, rel-3-chloro-4-{[4-(difluoromethyl)pyridin-2-yl]methoxy}-2′-[2-(2-hydroxypropan-2-yl)pyrimidin-4-yl]-5′,6-dimethyl-[1,4′-bipyridin]-2-one] the same measures were 5.01 µM and > 316 µM.
Take `CCc1cnc(-c2ccnc(C(C)(C)O)n2)cc1-n1c(C)cc(OCc2ncc(F)cc2F)c(Cl)c1=O` (single isomer, unassigned) [Example 29A, rel-3-chloro-4-((3,5-difluoropyridin-2-yl)methoxy)-5′-ethyl-2′-(2-(2-hydroxypropan-2-yl)pyrimidin-4-yl)-6-methyl-2H-[1,4′-bipyridin]-2-one]: the IC50 on p38a/MK2 (setting [2]) was 0.00794 µM; on p38a/PRAK, 12.6 µM.
